The values that follow come from patent publication US20230095618A1, “OIL-IN-WATER EMULSION COMPRISING A SOLID LIPID MATERIAL” (priority 2020, published 2023).

The experiment relates to yellow fever mosquito, Aedes aegypti Rockefeller strain. Nature of the experiment: Repulsive effect on mosquitoes: number of landings on a treated warm glass plate in a cage. It counts as in vivo. The conditions noted are these: reference actives diluted at 12.5% in ethanol; for number of mosquito landings: glass plate at 34° C., cage with 30 unfed A. aegypti females. How it is done: Controlling efficacy was tested against the yellow fever mosquito, Aedes aegypti Rockefeller strain. […] Observations of controlling efficacy were made on host-seeking females of uniform age, 5 to 12 days post-eclosion from pupae. Tested hungry females had access to 10% sugar solution but were not blood-fed. The testing protocol was adapted from the method described in Krober et al. (2010; doi: 10.2987/10-6044.1). A controlled amount […] of stimulus was deposited in the center of a sandblasted glass plate (60 mm diam) and maintained at 34° C. The glass plate was then placed in a polycarbonate cage (200×260×180 mm) containing 30 A. aegypti unfed female mosquitoes. The number of landings of the mosquitoes as a function of time was monitored using a camera and allowed to evaluate the repulsive effect of the stimulus. Stimuli tested were water, ethanol or diluted insect repellent active as controls and samples according to example 1. When only water is applied onto the glass surface, the average number of mosquitoes landing is about 63. The reference sample consisting of pure IR3535® diluted at 12.5% in ethanol reduces the number of landing from about 63 landings in the control test to about 12 landings 2 hrs after application (81% reduction), 15 after 4 hrs (−76%) and 30 after 6 hrs (−52%). Emulsion 1 according to example 1 reduces the number of landings from about 63 landings in the control test to about 12 landings 2 hrs after application (81% reduction), 4 after 4 hrs (−93%) and 3 after 6 hrs (−95%). […] Emulsion 2 according to example 1 reduces the number of landings from about 63 landings in the control test to about 8 landings 2 hrs after application (87% reduction), 2 after 4 hrs (−97%) and 4 after 6 hrs (−93%).

On to `CCN(CC)C(=O)c1cccc(C)c1` [DEET, N,N-diethyl-3-methylbenzamide], for which the “number of mosquito landings” value (2 hrs after application) is “about 15 landings”, the “number of mosquito landings” value (after 4 hrs) is recorded as ~10 landings and the “number of mosquito landings” value (after 6 hrs) is ~19 landings. Also, for the setting “2 hrs after application”, the “reduction of the number of landings versus water control” value was 72%. Further, the “change of the number of landings versus water control (given as negative %)” value (from here on “change of the number … (given as negative %)”) (after 4 hrs) was −81% and the “change of the number … (given as negative %)” value (after 6 hrs) is −65%.

On to `CCCCN(CCC(=O)OCC)C(C)=O` [IR3535®, ethyl 3-(acetyl(butyl)amino)propanoate], for which the “number of mosquito landings” value (2 hrs after application) was “about 12 landings”, the “number of mosquito landings” value (after 4 hrs) was ~15 landings and the “number of mosquito landings” value (after 6 hrs) is ~30 landings. Besides, the “reduction of the number of landings versus water control” value (2 hrs after application) was 81%. Further, the “change of the number … (given as negative %)” value by setting is: (after 4 hrs) −76%; (after 6 hrs) −52%.
